Measurements from publication PMC10360995, “Discovery of 3-((3-amino-1H-indazol-4-yl)ethynyl)-N-(4-((4-ethylpiperazin-1-yl)methyl)-3-(trifluoromethyl)phenyl)benzamide (AKE-72), a potent Pan-BCR-ABL inhibitor including the T315I gatekeeper resistant mutant” (Journal of Enzyme Inhibition and Medicinal Chemistry, 2023).
Like-named read-outs stand apart in the source and are kept apart here.

How the values were obtained:
RPMI-8226 = test: NCI SRB anti-leukemic assay; details: for GI50 / CC50: Homo sapiens; for GI50: RPMI-8226, read-out: GI50 RPMI-8226; for CC50: RPMI-8226, read-out: LC50 (half-maximal lethal concentration) RPMI-8226; for TGI (total growth inhibition) RPMI-8226: five-dose assay; for GI % RPMI-8226: single dose 10 µM
MOLT-4 = test: NCI SRB anti-leukemic assay; details: for GI50 / CC50: Homo sapiens; for GI50: MOLT-4, read-out: GI50 MOLT-4; for CC50: MOLT-4, read-out: LC50 (half-maximal lethal concentration) MOLT-4; for TGI (total growth inhibition) MOLT-4: five-dose assay
HL-60(TB) [1] = test: cells; details: Homo sapiens; for GI50: HL-60, read-out: GI50 HL-60(TB); for CC50: HL-60, read-out: LC50 (half-maximal lethal concentration) HL-60(TB)
K-562 [2] = test: NCI SRB anti-leukemic assay; details: for GI50 / CC50: Homo sapiens; for GI50: K562, read-out: GI50 K-562; for CC50: K562, read-out: LC50 (half-maximal lethal concentration) K-562
SR = test: NCI SRB anti-leukemic assay; details: for GI50 / CC50: Homo sapiens, SR; for GI50: read-out: GI50 SR; for CC50: read-out: LC50 (half-maximal lethal concentration) SR; for TGI (total growth inhibition) SR: five-dose assay
HL-60(TB) [3] = details: for TGI (total growth inhibition) HL-60(TB): five-dose assay
BCR-ABL^WT [4] = target: T1, BCR-ABL^WT (Homo sapiens, UniProt P00519); test: BCR-ABL WT kinase inhibition assay; type: biochemical; details: for IC50: 10-dose duplicate, 3-fold serial dilution, 10 µM ATP
T1 sequence (P00519 whole entry): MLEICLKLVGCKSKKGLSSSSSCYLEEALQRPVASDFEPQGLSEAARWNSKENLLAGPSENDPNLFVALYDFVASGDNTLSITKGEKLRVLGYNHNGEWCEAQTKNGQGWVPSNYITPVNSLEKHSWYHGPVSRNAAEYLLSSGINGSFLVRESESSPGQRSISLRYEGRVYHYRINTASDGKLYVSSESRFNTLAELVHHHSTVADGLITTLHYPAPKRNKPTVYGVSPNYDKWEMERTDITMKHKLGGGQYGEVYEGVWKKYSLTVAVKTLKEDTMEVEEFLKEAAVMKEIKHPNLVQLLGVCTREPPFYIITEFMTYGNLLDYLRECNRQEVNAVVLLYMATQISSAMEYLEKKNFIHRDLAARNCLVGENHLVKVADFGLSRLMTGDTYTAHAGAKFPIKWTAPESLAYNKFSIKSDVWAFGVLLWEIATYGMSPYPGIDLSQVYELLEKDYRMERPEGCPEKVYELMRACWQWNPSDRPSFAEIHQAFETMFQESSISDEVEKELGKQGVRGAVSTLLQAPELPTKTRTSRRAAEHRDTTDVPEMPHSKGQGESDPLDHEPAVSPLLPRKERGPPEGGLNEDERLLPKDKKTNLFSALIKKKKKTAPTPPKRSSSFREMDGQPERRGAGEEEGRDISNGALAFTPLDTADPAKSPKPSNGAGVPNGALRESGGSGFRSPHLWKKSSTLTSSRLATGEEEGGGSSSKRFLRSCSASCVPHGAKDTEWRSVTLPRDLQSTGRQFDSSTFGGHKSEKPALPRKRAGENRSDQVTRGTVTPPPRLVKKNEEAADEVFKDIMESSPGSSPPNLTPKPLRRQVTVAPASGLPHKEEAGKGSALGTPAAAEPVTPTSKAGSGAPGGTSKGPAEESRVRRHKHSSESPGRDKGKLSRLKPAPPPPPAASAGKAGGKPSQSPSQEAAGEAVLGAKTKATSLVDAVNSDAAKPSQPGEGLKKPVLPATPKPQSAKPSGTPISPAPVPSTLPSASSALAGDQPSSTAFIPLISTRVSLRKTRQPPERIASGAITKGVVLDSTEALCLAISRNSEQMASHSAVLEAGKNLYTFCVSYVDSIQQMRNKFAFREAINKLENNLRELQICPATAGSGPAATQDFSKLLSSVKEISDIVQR

CCRF-CEM = test: NCI SRB anti-leukemic assay; details: for GI50 / CC50: Homo sapiens, CCRF-CEM; for GI50: read-out: GI50 CCRF-CEM; for CC50: read-out: LC50 (half-maximal lethal concentration) CCRF-CEM; for TGI (total growth inhibition) CCRF-CEM: five-dose assay; for GI % CCRF-CEM: single dose 10 µM
K-562 [5] = test system: K-562; set-up: method as in PMID 32961435; details: cited from earlier work
BCR-ABL^WT [6] = target: T1, BCR-ABL^WT; details: cited from earlier work

Row | Compound | GI50 (RPMI-8226) [nM] | CC50 (RPMI-8226) [nM] | TGI (total growth inhibition) RPMI-8226 (RPMI-8226) [nM] | GI % RPMI-8226 (RPMI-8226) | GI50 (MOLT-4) [nM] | CC50 (MOLT-4) [nM] | TGI (total growth inhibition) MOLT-4 (MOLT-4) [nM] | GI50 (HL-60(TB) [1]) [nM] | CC50 (HL-60(TB) [1]) [nM] | GI50 (K-562 [2]) [nM] | CC50 (K-562 [2]) [nM] | TGI (total growth inhibition) K-562 (K-562 [2]; five-dose assay) [nM] | GI50 (SR) [nM] | CC50 (SR) [nM] | TGI (total growth inhibition) SR (SR) [nM] | TGI (total growth inhibition) HL-60(TB) (HL-60(TB) [3]) [nM] | GI50 (CCRF-CEM) [nM] | CC50 (CCRF-CEM) [nM] | TGI (total growth inhibition) CCRF-CEM (CCRF-CEM) [nM] | GI % CCRF-CEM (CCRF-CEM) | further results
1 | CN1CCN(Cc2ccc(C(=O)Nc3cccc(C#Cc4cccc5[nH]nc(N)c45)c3)cc2C(F)(F)F)CC1 [Compound 4a] | 1220 | 9520 | 3260 | L (lethal effect (% GI > 100)) | 494 | 7570 | 2280 | 278 | 7330 | < 10 | 6030 | 1020 | 1100 | > 100000 | 3350 | 1600 | 1220 | 8300 | 3180 | L (lethal effect (% GI > 100)) | IC50 (BCR-ABL^WT [4]): < 0.51 nM; fold superior potency against BCR-ABL^WT versus lead indazole II (BCR-ABL^WT [4]; relative to II): > 300 folds
2 | CCN1CCN(Cc2ccc(C(=O)Nc3cccc(C#Cc4cccc5[nH]nc(N)c45)c3)cc2C(F)(F)F)CC1 [Compound 4b] | 1590 | 9710 | 3920 | L (lethal effect (% GI > 100)) | 1420 | – | 3570 | 593 | – | < 1000 | – | 1140 | 1780 | > 100000 | 4590 | 2610 | 1600 | 8160 | 3620 | 96.4% | IC50 (BCR-ABL^WT [4]): 0.64 ± 0.0099 nM
3 | Nc1n[nH]c2cccc(C#Cc3cccc(NC(=O)c4ccc(N5CCOCC5)c(C(F)(F)F)c4)c3)c12 [I, reference compound] | 1980 | > 100000 | 6500 | L (lethal effect (% GI > 100)) | 1310 | > 100000 | 5710 | 1400 | > 100000 | < 10 | > 100000 | 13500 | 2400 | > 100000 | >100000 | 10500 | 1360 | > 100000 | 6580 | 9.49% | GI % MOLT-4 (MOLT-4; single dose 10 µM): 92.33%; GI50 (K-562 [5]): < 10 nM; IC50 (BCR-ABL^WT [6]): 4.6 ± 0.6 nM; TGI K-562 (K-562 [2]; five-dose assay): 13500 nM; GI % K-562 (K-562 [2]; single dose 10 µM): 97.96%; GI % SR (SR; single dose 10 µM): 87.42%; GI % HL-60(TB) (HL-60(TB) [3]; single dose 10 µM): 99.01%
